ChEMBL document CHEMBL6134796, “Development and Evaluation of Indole-Based Phospholipase D Inhibitors for Lung Cancer Immunotherapy” (J Med Chem, 2025)

Tests used:
[1] = system: A549; experiment: Cytotoxicity against human A549 cells assessed as inhibition of cell growth incubated for 48 hrs by WST-1 assay; type: functional, cell-based; conditions: A549, 48 h
[2] = system: HCT-116; experiment: Cytotoxicity against human HCT-116 cells assessed as inhibition of cell growth incubated for 48 hrs by WST-1 assay; type: functional, cell-based; conditions: HCT-116, 48 h
[3] = system: HCT-116; experiment: Residual PLD activity in human HCT-116 cells at 10 uM measured after 1 hr by amplex red phospholipase D assay as % of control
[4] = Inhibition of PLD in human A549 cells measured after 1 hr by amplex red phospholipase D assay; type: cell-based

Structure (SMILES) | level, % of control [3] | further results
O=C(Oc1cc(C(F)(F)F)cc(C(F)(F)F)c1)c1cc2cc(F)ccc2[nH]1 | 33.4% | IC50 [1]: 50 µM; IC50 [2]: > 50 µM; IC50 [4]: 3.1 µM
O=C(Cc1c[nH]c2ccccc12)Nc1cc(C(F)(F)F)cc(C(F)(F)F)c1 | 53% | –
O=C(CCCc1c[nH]c2ccccc12)Nc1cc(C(F)(F)F)cc(C(F)(F)F)c1 | 55.5% | –
COc1ccc(CNC(=O)c2cc3cc(F)ccc3[nH]2)cc1OC | 48% | –
O=C(Nc1ccc(F)cc1)c1cc2cc(F)ccc2[nH]1 | 53.2% | –
O=C(Nc1ccc(O)c(O)c1)c1c[nH]c2ccccc12 | 51.1% | –
O=C(Nc1cc(F)cc(F)c1)c1cc2cc(F)ccc2[nH]1 | 51.1% | –
O=C(CCc1c[nH]c2ccccc12)Nc1cccc(F)c1 | 50.6% | –
O=C(Nc1ccc(O)c(O)c1)c1cc2cc(F)ccc2[nH]1 | – | IC50 [1]: > 200 µM; IC50 [2]: > 50 µM; IC50 [4]: 4.31 µM
O=C(Cc1c[nH]c2ccccc12)Nc1ccc(O)c(O)c1 | 54.4% | –
COc1ccc(NC(=O)c2cc3cc(F)ccc3[nH]2)cc1OC | 52.2% | –
C[C@@H](CN1CCC(n2c(=O)[nH]c3cc(Cl)ccc32)CC1)NC(=O)c1ccc2ccccc2c1 | 30.4% | –
O=C(Nc1cc(C(F)(F)F)cc(C(F)(F)F)c1)c1cc2cc(C(F)(F)F)ccc2[nH]1 | 45.8% | –
O=C(Nc1cccc(C(F)(F)F)c1)c1cc2cc(F)ccc2[nH]1 | 47.6% | –
